Source: the supplement of paper PMC10702517
± gives the standard deviation.

Legend:
[1] = chemical recovery by SPE of plasma after PDMS sampling; higher = better extraction; conditions: pooled human plasma, extraction method: HLB SPE of plasma after PES
[2] = chemical recovery from spiked human plasma; higher = better extraction; conditions: pooled human plasma
[3] = extraction method: SPE only (HLB 96-well)
[4] = extraction method: SPE only (HLB 96-well), PES comparison experiment
[5] = extraction method: solvent precipitation (ACN + hexane)
[6] = extraction method: PES+SPE (3 d PDMS equilibration then HLB SPE)
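Wherever chemical recovery by SPE of plasma after PDMS sampling is given: over 400 spiked chemicals quantified by LC-HRMS or GC-HRMS via internal standard calibration, recovery relative to spike mix added to unspiked plasma extract to correct matrix effects.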

Structure (SMILES)	chemical recovery by SPE of plasma ([1]; equilibration time (d): 1) [%]	chemical recovery by SPE of plasma ([1]; equilibration time (d): 3) [%]	chemical recovery by SPE of plasma ([1]; equilibration time (d): 6) [%]	chemical recovery [2, 3] [%]	chemical recovery [2, 4] [%]	chemical recovery [2, 5] [%]	chemical recovery [2, 6] [%]
O=P(O)(Oc1ccccc1)Oc1ccccc1 [Diphenylphosphate]	46.4 ± 13	56 ± 6.6	49.8 ± 8.2	44.6 ± 4.8	47 ± 7	–	–
CCCCCCCCCCCC[N+](C)(C)[O-] [N,N-Dimethyldodecylamine N-oxide]	23.5 ± 3.5	17.7 ± 3	9.46 ± 8.3	55.1 ± 13	43.2 ± 7.2	–	–
Cc1cccc(C(=O)O)c1N(Cn1cccn1)C(=O)C(=O)O [Metazachlor BH479-12]	42 ± 6	49.95 ± 0.36	46.4 ± 4.8	–	37.9 ± 3.8	–	–
CCCCCCCCCCCCNC [N-Methyldodecylamine]	0.209 ± 0.36	–	–	–	44.7 ± 7.9	62.7 ± 5.7	–
CCCOc1nn(C(=O)NS(=O)(=O)c2ccccc2C(=O)OC)c(=O)n1C [Propoxycarbazone]	27.1 ± 5.6	32 ± 2.5	29.4 ± 1.4	31.4 ± 2.8	43.2 ± 6.2	75.6 ± 5.4	39.2 ± 4.4
C[C@]12C=CC(=O)C=C1CC[C@@H]1[C@@H]2[C@@H](O)C[C@@]2(C)[C@H]1CC[C@]2(O)C(=O)CO [Prednisolone]	–	48.4 ± 2.3	44.5 ± 1.3	–	61.1 ± 7.2	–	–
COc1cc(OC)nc(NC(=O)NS(=O)(=O)c2ncccc2C(=O)N(C)C)n1 [Nicosulfuron]	51.6 ± 5.2	56 ± 2.5	50.3 ± 3.3	44.7 ± 3.3	49.3 ± 3.4	64.3 ± 2.2	–
CC[C@H]1OC(=O)[C@H](C)[C@@H](O[C@H]2C[C@@](C)(OC)[C@@H](O)[C@H](C)O2)[C@H](C)[C@@H](O[C@@H]2O[C@H](C)C[C@H](N(C)C)[C@H]2O)[C@](C)(OC)C[C@@H](C)C(=O)[C@H](C)[C@@H](O)[C@]1(C)O [Clarithromycin]	22 ± 3.3	24.4 ± 2.8	22.3 ± 2.2	45.1 ± 2.3	44.1 ± 6.5	69.1 ± 2.1	30.2 ± 4.1
O=S(=O)(O)c1nc2ccccc2s1 [2-Benzothiazolesulfonic acid]	31.8 ± 4.8	42.3 ± 0.92	39.9 ± 5.4	61.2 ± 20	46 ± 4.3	88.4 ± 4.2	–
CC[C@H]1OC(=O)[C@H](C)[C@@H](O[C@H]2C[C@@](C)(OC)[C@@H](O)[C@H](C)O2)[C@H](C)[C@@H](O[C@@H]2O[C@H](C)C[C@H](N(C)C)[C@H]2O)[C@](C)(O)C[C@@H](C)/C(=N\OCOCCOC)[C@H](C)[C@@H](O)[C@]1(C)O [Roxithromycin]	28.8 ± 5.2	29.5 ± 4.3	26.9 ± 3.6	–	36.2 ± 4.7	–	–
CCCCc1nc(Cl)c(CO)n1Cc1ccc(-c2ccccc2-c2nnn[nH]2)cc1 [Losartan]	44.8 ± 3.8	50.8 ± 2.6	46.7 ± 1.6	41.2 ± 2.9	40.8 ± 7.5	77.2 ± 3.6	44.5 ± 4.3
Cc1cccc(C)c1NC(=O)CS(=O)(=O)O [Dimethachlor CGA369-873]	–	23.6 ± 2.8	28.2 ± 8.7	40.3 ± 3.8	45.2 ± 5	79.6 ± 8.1	42.4 ± 2.5
O=c1[nH]c2ccccc2n1CCCN1CCC(n2c(=O)[nH]c3cc(Cl)ccc32)CC1 [Domperidone]	44.4 ± 5.1	46.3 ± 3.7	42.3 ± 4.4	–	44.6 ± 4.9	–	–
C=Cc1c2ccccc2cc2ccccc12 [9-Vinylanthracene]	3.04 ± 5.3	3.05 ± 5.3	2.42 ± 4.2	2.31 ± 0.48	–	–	42.05 ± 0.27
c1cc2ccc3ccc4ccc5cccc6c(c1)c2c3c4c56 [Benzo(ghi)perylene]	2.59 ± 4.5	1.28 ± 1.1	1.37 ± 0.46	–	–	–	–
COc1cc(OC)nc(NC(=O)NS(=O)(=O)N(C)S(C)(=O)=O)n1 [Amidosulfuron]	46.5 ± 7.7	49.1 ± 5.5	45.9 ± 6.6	41 ± 4.5	49.1 ± 5.6	70.2 ± 3.1	46.6 ± 16
CCCc1nc(C)c2c(=O)nc(-c3cc(S(=O)(=O)N4CCN(CC)CC4)ccc3OCC)[nH]n12 [Vardenafil]	13.4 ± 2.1	7.22 ± 1.1	4.01 ± 0.43	–	35.1 ± 8.2	–	–
O=C(O)COCCN1CCN(C(c2ccccc2)c2ccc(Cl)cc2)CC1 (stereo not given) [Cetirizine]	47.2 ± 6.6	52.3 ± 5.3	47.7 ± 2.9	50.9 ± 2.3	48.6 ± 6.5	–	69.9 ± 7.9
CCCCCCCCCCCCCC(=O)NCCC[N+](C)(C)CCCS(=O)(=O)[O-] [Amidosulfobetaine-14]	25.7 ± 5.3	26.1 ± 6.5	25.2 ± 4.2	–	36 ± 9.4	74.8 ± 5	–
CCCSc1ccc2[nH]c(NC(=O)OC)nc2c1 [Albendazole]	5.86 ± 0.39	3.53 ± 0.36	2.28 ± 0.42	35.7 ± 3.7	37.8 ± 5.9	59.7 ± 5.1	3.61 ± 0.98
NC(=O)N=C(N)N [Guanylurea]	0.503 ± 1.2	0.581 ± 0.1	0.912 ± 0.18	–	1.06 ± 1.4	–	–
O=c1c(-c2ccc(O)cc2)coc2cc(O)cc(O)c12 [Genistein]	46.2 ± 7.8	50 ± 4.5	47 ± 3.7	49.1 ± 3.9	46.4 ± 4	48.3 ± 10	55.5 ± 1.2
